# According to patent US11571418B2, “Platinum compounds that inhibit constitutive STAT3 signaling and induce cell cycle arrest and apoptosis of malignant cells” (H. LEE MOFFITT CANCER CENTER AND RESEARCH INSTITUTE, INC., priority 2011, dated 2023):
# Tests used:
# Stat5 = test: In vitro Stat5 DNA-binding activity assay, EMSA with MGFe probe; design: species or system mouse; conditions: pre-incubated 30 min before MGFe probe
# Protocol: FIGS. 1A-1E. Inhibition of in vitro Stat3 DNA-binding activity by a platinum complex. Nuclear extracts or cell lysates containing activated Stat1, Stat3 and Stat5, or E2F1 prepared from NIH3T3/hEGFR that are stimulated with EGF or Sf-9 insect cells that are infected with baculovirus expressing Stat1, Stat3, Stat5, or E2F1, respectively, were treated with or without the indicated concentrations of platinum complex, PLATINUM-401 or Cisplatin, for 30 min at room temperature prior to incubation with radiolabeled oligonucleotide probes, and subjected to EMSA analysis. (FIG. 1A) (i) Stat1 and Stat3 binding activities to hSIE probe, (ii) Stat1 and Stat5 binding activities to MGFe probe, and (iii) plot of % oligonucleotide probe-STAT:STAT complexes versus concentration of PLATINUM-401. […] Positions of STAT: STAT-DNA complexes in gel are labeled. In (A) to (C), the control lanes represent DMSO (vehicle)-treatment.
# Nuclear extract preparation and gel shift assays—Nuclear extract preparation from NIH3T3 stimulated by rhIL-6, NIH3T3/hEGFR stimulated by rhEGF, v-Src-transformed fibroblasts (NIH3T3/v-Src) or tumor cell lines and electrophoretic mobility shift assay were carried out as previously described (Turkson et al., 1998; Garcia et al., 1997; Yu et al., 1995). […]
# [1] = tested on: constitutively-active Stat3 in NIH3T3/v-Src; test: Constitutive Stat3 DNA-binding activity in treated NIH3T3/v-Src cells (EMSA of nuclear extracts); assay type: cell-based, mouse
# Protocol: FIGS. 3A-3D. Inhibition of Stat3-mediated gene expression by PLATINUM-401. (FIG. 3A) and (FIG. 3B) v-Src-transformed mouse fibroblasts that stably express Stat3-dependent (NIH3T3/v-Src/pLucTKS3) and Stat3-independent (NIH3T3/v-Src/pRLSRE) luciferase reporters or β-galactosidase (β-gal), as well as normal mouse fibroblast (NIH3T3) transiently transfected with pLucTKS3, pGL2-VEGF-Luc, NFkB-Luc or pLucSRE together with or without v-Src were treated with or without PLATINUM-401 for 48 h. Cytosolic extracts were then prepared from cells for luciferase and […] activities measurements. Values are the means and S.D. of three to five independent assays; (FIG. 3C) and (FIG. 3D) Nuclear extracts or whole cell lysates were prepared from IL-6-stimulated normal mouse fibroblasts (NIH3T3) or their v-Src-transformed counterpart (NIH3T3/v-Src) that are treated with or without PLATINUM-401 for different times. Samples of equal total proteins were then subjected to in vitro DNA-binding activity and EMSA analysis or for SDS-PAGE and Western blot analysis for phosphorylated and total Stat3.
# Nuclear extract preparation and gel shift assays—Nuclear extract preparation from NIH3T3 stimulated by rhIL-6, NIH3T3/hEGFR stimulated by rhEGF, v-Src-transformed fibroblasts (NIH3T3/v-Src) or tumor cell lines and electrophoretic mobility shift assay were carried out as previously described (Turkson et al., 1998; Garcia et al., 1997; Yu et al., 1995). The ^32P-labeled oligonucleotide probes used are hSIE (high affinity sis-inducible element from the c-fos gene, m67 variant, 5′-[…]) (SEQ ID NO:1) that binds Stat1 and Stat3 (Garcia et al., 1997; Wagner et al., 1990) and MGFe (mammary gland factor element from the bovine β-casein gene promoter, 5′-AGATTTCTAGGAATTCAA) (SEQ ID NO:2) for Stat1 and Stat5 binding (49,50). Except where indicated, inhibitor compound was pre-incubated with the nuclear extract for 30 min at room temperature prior to incubation with radiolabeled probe.
# To further investigate the activities of PLATINUM-401, the inventors treated malignant cells and measured effects on Stat3 signaling. […] Taken together with the results in FIG. 1, these findings indicate that PLATINUM-401 blocks the binding of activated Stat3 to its responsive elements in the promoters of target genes. Moreover, in a time- and dose-dependent manner, PLATINUM-401 inhibits the constitutive or ligand-induced activation of Stat3 DNA-binding activity (FIG. 3C), as well as tyrosine phosphorylation in mouse fibroblasts (FIG. 3D and data not shown). […] Changes in Stat3 protein levels were minimal. […] Results together indicate that at the 5-10 μM PLATINUM-401 that inhibits intracellular Stat3 signaling, there is no observable non-specific effect on non-Stat3 related pathways investigated here.
# To further elucidate the interaction between Stat3 and PLATINUM-401, v-Src-transformed mouse fibroblasts were transfected with Stat3 protein and then used to investigate PLATINUM-401 activity. The transfection of wild-type Stat3 into the v-Src-transformed fibroblasts results in higher Stat3 DNA-binding activity over that of parentals, as measured by in vitro DNA-binding activity and EMSA analysis (FIG. 7C, left panel, lanes 3 and 6 versus 1 and 2). This is due to the increased expression of Stat3 protein and the consequent phosphorylation by oncogenic Src tyrosine kinase that is present in these cells.
smiles,measurement,setting,value
CC(O)CN1CCN(CC(C)O)CC1 (stereo not drawn) [PLATINUM-401],effect on DNA-binding activity of Stat5:Stat5 dimer,Stat5,does not significantly affect
same,"constitutively-active Stat3 DNA-binding activity, cells transfected with wild-type Stat3","[1]; NIH3T3/v-Src transfected with exogenous wild-type Stat3, 5 μM, 36 h",no significant reduction
same,time required for significant inhibition of constitutively-active Stat3,"[1]; NIH3T3/v-Src, data not shown",> 12 h
same,concentration that inhibits intracellular Stat3 signaling,[1]; mouse fibroblasts,5 to 10 µM
same,"constitutively-active Stat3 DNA-binding activity, mock-transfected cells","[1]; parental, mock-transfected NIH3T3/v-Src, 5 μM, 36 h",significant reduction
same,constitutive activation of Stat3 DNA-binding activity,[1]; time- and dose-dependent,inhibits
